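All cell lines were grown in 96-well plates and treated with compound for 48 hours. The concentration for 50% growth inhibition is given as GI50. At the TGI there is no net growth.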 Bounds are passed on as bounds.

Common to all, as to experiment: growth of human tumour cells (NCI), 48 h
Assay [1] concerns IGROV1 ovarian.
Assay [2] relates to OVCAR-4 ovarian.
Assay [3] concerns M14 melanoma.
In assay [4] the test system is OVCAR-3 ovarian.
Assay [5] concerns HT29 colon.
For assay [6], the system named is PC-3 prostate.
Assay [7] concerns NCI/ADR-RES ovarian.
Assay [8] relates to UACC-257 melanoma.
The test system of assay [9] is A549 NSCLC.
For assay [10], the system named is CCRF-CEM leukemia.

On to `COc1ccc2c(c1)OCC1c3cc(OC)ccc3OC21` (stereo unspecified), for which the GI50 in assay [1] was 49.5 µM; in assay [2] it was 39.2 µM; in assay [3] it was 39 µM; in assay [4] it was 44.2 µM; in [5], 34.9 µM; in assay [6], 91.2 µM. For the same molecule, the GI50 is 32 µM in [7], more than 100 µM in assay [8] and 89.1 µM in assay [9]. In addition, the TGI in assay [1], in assay [2], in [3], in assay [4], in [5] and in assay [6] was more than 100 µM each time. The TGI in [7], in assay [8] and in assay [9] was more than 100 µM each time.

With `C=C1C(=O)O[C@H]2[C@H]1CC/C(COC(=O)NCc1ccc(Cn3c(=O)sn(CCCI)c3=O)cc1)=C\CC[C@@]1(C)O[C@@H]21`, the GI50 in [1] was 1.75 µM; in [2], 1.46 µM; in assay [3], 1.74 µM; in assay [4], 1.19 µM; in assay [5], 1.74 µM; in assay [6] it was 1.94 µM. Also, the GI50 is 28.1 µM in assay [7], 1.79 µM in assay [8], 11.2 µM in assay [9] and 0.314 µM in assay [10]. In addition, the TGI in [1] came to 3.84 µM; in assay [2] it was 3.11 µM; in assay [3], 4.69 µM; in assay [4] it was 2.43 µM; in [5], 3.31 µM; in assay [6] it was 4.4 µM. Further, the TGI in assay [7] is more than 100 µM; in assay [8], 3.67 µM; in assay [9], 25.3 µM; in assay [10], 2.18 µM.

With `N=C(N)c1ccc(-c2ccc(-c3cccs3)s2)cc1F`, the GI50 in assay [1] is 2.28 µM; in assay [2] it was 1.54 µM; in [3], 1.45 µM; in [4] it was 1.47 µM; in assay [6] it was 1.48 µM; in assay [7] it was 2 µM. In addition, the figures for the GI50 in assay [8], in [9] and in assay [10] were 1.77 µM, 0.0305 µM and 1.58 µM, respectively. Further, the TGI in assay [1] stood at 4.74 µM; in assay [2] it was 3.85 µM; in assay [3], 2.97 µM; in [4] it was 3.09 µM; in assay [6] it was 3.03 µM; in assay [7], 4.3 µM. Besides, the TGI was 3.43 µM in assay [8], 1.27 µM in [9] and 3.46 µM in assay [10].

Consider `CC(C)OC(=O)OCOP(=O)(OCOC(=O)OC(C)C)C1CCCN(O)C1=O` (stereo unspecified), for which the GI50 in assay [1] was 0.565 µM; in assay [2], 2.32 µM; in assay [3], 2.67 µM; in assay [4] it was 1.47 µM; in [5] it was 0.571 µM; in [6], 7.55 µM. In addition, the GI50 in assay [7] was 2.6 µM; in assay [8], 49.1 µM; in assay [9], 4.01 µM; in assay [10] it was 0.446 µM. The TGI is 12.6 µM in [1]; more than 100 µM in assay [2]; more than 100 µM in assay [3]; more than 100 µM in [4]; more than 100 µM in [5]; more than 100 µM in assay [6]. Also, the TGI in assay [7], in [8], in assay [9] and in [10] was more than 100 µM each time.

As for `C=C(C)[C@@H]1CC[C@]2(C(=O)OC)CC[C@]3(C)[C@H](CC[C@@H]4[C@@]5(C)CC/C(=N\OCCC(=NCCC#N)NOCCC#N)C(C)(C)[C@@H]5CC[C@]43C)[C@@H]12`, the GI50 in assay [1] is 14.9 µM; in [2] it was 12.3 µM; in assay [3], 11.9 µM; in [4], 5.17 µM; in [5], 6.7 µM; in assay [6] it was 2.26 µM. Also, the GI50 is 13.5 µM in assay [7], 5.35 µM in [8], 5.27 µM in assay [9] and 11.7 µM in assay [10]. Further, the TGI is more than 50 µM in [1]; more than 50 µM in [2]; more than 50 µM in assay [3]; 15.8 µM in [4]; 26.2 µM in assay [5]; more than 50 µM in [6]. In addition, the TGI in assay [7], in assay [8], in [9] and in assay [10] was more than 50 µM each time.

On to `O=c1c2cc(F)ccc2sc2c(NCCCNCCO)nc3ccc(F)cc3c12`, for which the GI50 in assay [1] is 1.25 µM; in assay [2], 2.03 µM; in assay [3], 1.85 µM; in [4] it was 1.78 µM; in assay [5] it was 1.82 µM; in [6] it was 1.67 µM. In addition, the GI50 in [7] is 1.67 µM; in assay [8] it was 1.98 µM; in assay [9] it was 1.92 µM; in assay [10], 2.24 µM. The TGI in [1] was 2.65 µM; in assay [2], 4.43 µM; in assay [3], 3.67 µM; in assay [4], 3.38 µM; in assay [5] it was 3.74 µM; in assay [6] it was 3.3 µM. Besides, the TGI in assay [7] turned out to be 3.22 µM; in assay [8], 4.03 µM; in assay [9], 4.4 µM; in assay [10], 5.08 µM.

Turning to `CCc1ccc2cc3c(ccc4ccccc43)c3c2c1CC3`, the GI50 in [1], in assay [2], in [3], in assay [4], in assay [5] and in assay [6] was more than 100 µM each time. Also, the GI50 in assay [7], in assay [9] and in [10] was more than 100 µM throughout. In addition, the TGI in assay [1], in [2], in [3], in assay [4], in assay [5] and in [6] was more than 100 µM each time. Also, the TGI in assay [7], in assay [9] and in assay [10] was more than 100 µM in each case.

Turning to `CC1(C)N=C(N)N=C(N)N1c1cccc(CC(=O)Nc2ccccc2)c1`, the GI50 in assay [1] was 8.48 µM; in [2], 81.8 µM; in assay [3], 40.2 µM; in [4], 32.1 µM; in [5] it was 2.35 µM; in assay [6], 0.895 µM. Moreover, the GI50 in assay [7] was more than 100 µM; in [8], more than 100 µM; in [9] it was 3.54 µM; in assay [10], 18.2 µM. Further, the TGI in assay [1], in assay [2], in assay [3], in assay [4], in assay [5] and in [6] was more than 100 µM in each case. Moreover, the TGI in assay [7], in [8], in assay [9] and in assay [10] was more than 100 µM in each case.

`C=C(CN1CCc2ccccc2C1)c1ccc(C(=O)Nc2cccc(N)c2)cc1`: the GI50 was 16 µM in assay [1]; 15.4 µM in assay [3]; 13.6 µM in [4]; 20.4 µM in [5]; 21.9 µM in [6]; 21.7 µM in [7]. Further, the figures for the GI50 in [8], in assay [9] and in assay [10] were 14.8 µM, 20.5 µM and 16.4 µM, respectively. Also, the TGI was 47.2 µM in [1]; 29.1 µM in [3]; 35.3 µM in [4]; 94.7 µM in [5]; more than 100 µM in [6]; 76.8 µM in assay [7]. Further, the TGI in [8] is 29.7 µM; in assay [9], 61.2 µM; in assay [10], more than 100 µM.

In the case of `C=CN(C(=O)N1CCN(c2cc3c(cc2F)c(=O)c(C(=O)O)cn3C2CC2)CC1)c1nc(-c2ccc(C)cc2)cs1`, the GI50 was 3.42 µM in [1]; 3.56 µM in assay [2]; 3.83 µM in [4]; 3.31 µM in assay [5]; 0.376 µM in [6]; 2.67 µM in [7]. Besides, the GI50 in [8] is 2.81 µM; in assay [9], 3.17 µM; in assay [10], 0.438 µM. Moreover, the TGI is more than 100 µM in assay [1]; more than 100 µM in [2]; more than 100 µM in [4]; more than 100 µM in [5]; 6.52 µM in assay [6]; 7.24 µM in assay [7]. Further, the figures for the TGI in assay [8], in assay [9] and in assay [10] were 7.44 µM, more than 100 µM and more than 100 µM, respectively.

For the molecule `CNC(=S)N/N=C/CSC/C=N/NC(=S)NC`, the TGI in assay [1], in [2], in assay [3], in assay [4], in assay [6] and in assay [7] was more than 100 µM in each case. Moreover, the TGI in [8], in assay [9] and in [10] was more than 100 µM in each case. For the same molecule, the GI50 in assay [3] was more than 100 µM; in assay [4], more than 56.9 µM; in assay [6], more than 100 µM; in assay [7], more than 100 µM; in assay [8] it was more than 100 µM; in assay [9] it was more than 100 µM. Besides, the GI50 in assay [10] is 24.7 µM.

For `CCN(CC)CCCC(C)Nc1ccnc2cc(OC)ccc12` (stereo unspecified), the GI50 is 27.3 µM in [1]; 22.6 µM in assay [2]; 16.7 µM in [3]; 23.7 µM in assay [4]; 5.77 µM in assay [6]; 91.1 µM in [7]. Besides, the GI50 in assay [8] is 18.2 µM; in [9], 18.3 µM; in assay [10], 18.1 µM. Also, the TGI in assay [1] is 79.3 µM; in assay [2], 62.2 µM; in assay [3], 30.4 µM; in [4] it was 67.5 µM; in assay [6] it was 21.8 µM; in assay [7], more than 100 µM. Moreover, the TGI in [8] amounted to 34.2 µM; in [9] it was 35.5 µM; in [10], 42.3 µM.

For `Cc1nn(-c2ccccc2)c2c1[C@@H](C)[C@H]1CC3(CC4(C)C[C@@H]3C1(C)c1c(C)nn(-c3ccccc3)c1N4C)N2C` (stereo partly specified), the GI50 in [1] is more than 100 µM; in assay [2], 8.66 µM; in assay [6], 0.591 µM; in assay [7] it was more than 100 µM. Besides, the TGI in assay [1], in assay [2], in assay [6] and in assay [7] was more than 100 µM in each case.

`CCN(CC)c1ccc(C=C2C(=O)NC(=S)NC2=O)cc1`: the GI50 in assay [2] is 7.58 µM; in assay [3], 6.6 µM; in [4] it was 3.15 µM; in assay [5] it was 1.86 µM; in assay [6] it was 2.75 µM; in [7] it was 3.39 µM. In addition, the GI50 in assay [8] was 6.46 µM; in assay [9], 12.1 µM; in assay [10] it was 2.12 µM. Further, the TGI in assay [2] came out at 19.5 µM; in [3] it was 21 µM; in assay [4], 8.68 µM; in assay [5], 3.64 µM; in [6] it was 7.96 µM; in assay [7], 12.2 µM. Further, the TGI amounted to 19.4 µM in assay [8], 28 µM in [9] and 6.89 µM in assay [10].

Consider `COc1ccc(-c2cc(-c3ccc(Cl)cc3)c(C#N)c(=O)n2CCCCCC(=O)Nc2ccccc2N)cc1`, for which the GI50 in assay [1] was 4.22 µM; in assay [2], 6.48 µM; in [3], 2.44 µM; in assay [4], 5 µM; in [5] it was 3.56 µM; in assay [6], 3.05 µM. The GI50 was 3.99 µM in assay [7], 4.06 µM in assay [9] and 4.84 µM in [10]. In addition, the TGI in assay [1] is more than 100 µM; in [2] it was more than 100 µM; in assay [3], 6.57 µM; in assay [4], 25.3 µM; in assay [5], more than 100 µM; in assay [6], 31 µM. In addition, the TGI in assay [7], in assay [9] and in assay [10] was more than 100 µM in each case.

As to `CC1SC(c2ccc(OCc3ccccc3)cc2)N(NC(=O)C(O)(c2ccccc2)c2ccccc2)C1=O` (stereo unspecified), the GI50 was 2.4 µM in [1]; 5.13 µM in assay [2]; 2.36 µM in [4]; 3.05 µM in [5]; 2.08 µM in assay [6]; 3.72 µM in assay [7]. Further, the GI50 in assay [8] was 7.39 µM; in assay [9], 4.68 µM; in assay [10], 2.1 µM. Further, the TGI in assay [1] was 11.5 µM; in assay [2] it was 36 µM; in assay [4], 6.1 µM; in [5], 7.68 µM; in [6] it was 6.85 µM; in assay [7], 17.8 µM. Also, the TGI was determined as 21.3 µM in assay [8], 20.8 µM in assay [9] and 5.69 µM in [10].

Source of the values: PubChem BioAssay (NCI).
